Results: the Kinase Knowledgebase extract (Sharma et al. 2016)

molecular target: PIK3CG (human) (UniProt P48736); experiment: Inhibition of PIK3CG Kinase Activity
Sequence (P48736 whole entry, looked up): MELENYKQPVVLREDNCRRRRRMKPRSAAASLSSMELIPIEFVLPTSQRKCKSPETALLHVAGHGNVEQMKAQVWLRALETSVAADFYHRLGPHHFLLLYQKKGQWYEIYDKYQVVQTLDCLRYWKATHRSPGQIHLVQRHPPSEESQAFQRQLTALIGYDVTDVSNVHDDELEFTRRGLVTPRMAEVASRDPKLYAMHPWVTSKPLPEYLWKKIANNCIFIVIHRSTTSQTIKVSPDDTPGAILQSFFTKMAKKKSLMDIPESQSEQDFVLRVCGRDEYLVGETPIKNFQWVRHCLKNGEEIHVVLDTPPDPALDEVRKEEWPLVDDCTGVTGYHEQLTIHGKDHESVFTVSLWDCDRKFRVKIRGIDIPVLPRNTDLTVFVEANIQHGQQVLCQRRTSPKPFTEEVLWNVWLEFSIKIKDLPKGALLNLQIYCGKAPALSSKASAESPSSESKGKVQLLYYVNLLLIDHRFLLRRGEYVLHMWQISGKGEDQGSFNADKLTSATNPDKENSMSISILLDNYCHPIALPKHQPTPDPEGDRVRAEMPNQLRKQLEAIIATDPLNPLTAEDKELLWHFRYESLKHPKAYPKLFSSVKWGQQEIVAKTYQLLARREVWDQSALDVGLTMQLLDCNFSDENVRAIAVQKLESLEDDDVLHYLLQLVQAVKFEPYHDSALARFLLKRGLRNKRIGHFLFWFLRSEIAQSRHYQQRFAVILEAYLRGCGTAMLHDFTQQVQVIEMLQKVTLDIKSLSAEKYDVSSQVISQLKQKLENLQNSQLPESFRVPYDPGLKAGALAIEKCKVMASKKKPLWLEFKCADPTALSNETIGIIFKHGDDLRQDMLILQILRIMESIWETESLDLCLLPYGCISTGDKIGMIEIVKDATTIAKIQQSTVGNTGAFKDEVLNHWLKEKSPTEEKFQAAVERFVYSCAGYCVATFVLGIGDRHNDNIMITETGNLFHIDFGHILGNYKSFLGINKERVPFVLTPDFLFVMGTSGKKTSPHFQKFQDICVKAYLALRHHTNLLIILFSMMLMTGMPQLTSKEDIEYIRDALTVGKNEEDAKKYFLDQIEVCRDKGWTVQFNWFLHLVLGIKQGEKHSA

SMILES | IC50 [nM]
COc1ccc2oc(C(=O)Nc3nnn[nH]3)c(OC3CCC3)c2c1 | 400
COc1ccc2oc(C(=O)Nc3nnn[nH]3)c(OC3CCC4CCCCC4C3)c2c1 (centres undefined) | 325
CC1(OCOc2c(C(=O)Nc3nnn[nH]3)oc3ccc(Cl)cc23)CC1 | 1460
COc1ccc2oc(C(=O)Nc3nnn[nH]3)c(OCC3CCC3)c2c1 | 175
COc1ccc2oc(C(=O)Nc3nnn[nH]3)c(OC3CCC(C4CCCCC4)CC3)c2c1 (centres undefined) | 380
COc1ccc2oc(C(=O)Nc3nnn[nH]3)c(OCC3CC=CCC3C)c2c1 (centres undefined) | 185
COc1ccc2oc(C(=O)Nc3nnn[nH]3)c(OCC3CCCCC3)c2c1 | 840
COc1ccc2oc(C(=O)Nc3nnn[nH]3)c(OC3CC(C)CC(C)C3)c2c1 (centres undefined) | 41
CCC(Oc1c(C(=O)Nc2nnn[nH]2)oc2ccc(OC)cc12)C1CCCCC1 (centres undefined) | 305
O=C(Nc1nnn[nH]1)c1oc2ccc(Cl)cc2c1OC1CCCC1 | 3320
COc1ccc2oc(C(=O)Nc3nnn[nH]3)c(OC3CC(C)CCC3C)c2c1 (centres undefined) | 370
CCC1(COc2c(C(=O)Nc3nnn[nH]3)oc3ccc(OC)cc23)COC1 | 1460
COc1ccc2oc(C(=O)Nc3nnn[nH]3)c(OCC3CC3)c2c1 | 690
COc1ccc2oc(C(=O)Nc3nnn[nH]3)c(OC3CCC(C)C(C)C3)c2c1 (centres undefined) | 76
COc1ccc2oc(C(=O)Nc3nnn[nH]3)c(OC3CC4CCC3C4)c2c1 (centres undefined) | 335
COc1ccc2oc(C(=O)Nc3nnn[nH]3)c(OCC3CCCCCC3)c2c1 | 108
COc1ccc2oc(C(=O)Nc3nnn[nH]3)c(OC(C)C3CCCC3)c2c1 (centres undefined) | 150
COc1ccc2oc(C(=O)Nc3nnn[nH]3)c(OC3CCCCCCC3)c2c1 | 185
COc1ccc2oc(C(=O)Nc3nnn[nH]3)c(OCC3(C)COC3)c2c1 | 3640
COc1ccc2oc(C(=O)Nc3nnn[nH]3)c(OCC3C4CCC(C4)C3C)c2c1 (centres undefined) | 67
COc1ccc2oc(C(=O)Nc3nnn[nH]3)c(OCC3(C)CC3)c2c1 | 220
COc1ccc2oc(C(=O)Nc3nnn[nH]3)c(OCC3CCCC3)c2c1 | 160
COc1ccc2oc(C(=O)Nc3nnn[nH]3)c(OC3CCCC3)c2c1 | 1050
COc1ccc2oc(C(=O)Nc3nnn[nH]3)c(OC3CCCCCC3)c2c1 | 97
COc1ccc2oc(C(=O)Nc3nnn[nH]3)c(OCC3CC=CCC3)c2c1 (centres undefined) | 315
COc1ccc2oc(C(=O)Nc3nnn[nH]3)c(OC3CCOCC3)c2c1 | 1180
COc1ccc2oc(C(=O)Nc3nnn[nH]3)c(OC(C)C3CC3)c2c1 (centres undefined) | 1460
COc1ccc2oc(C(=O)Nc3nnn[nH]3)c(OC3CC(C)CC3C)c2c1 (centres undefined) | 290
COc1ccc2oc(C(=O)Nc3nnn[nH]3)c(OC3CCCCC3)c2c1 | 255
